Activity calls are given as the source filed them. No cut-off for these calls is given here.
Key:
[1] = target: T1, Estrogen receptor (Homo sapiens) (UniProt P03372); experiment: Agonist activity at human wild type ERalpha expressed in human HeLa cells co-expressing AP-1 assessed as transactivation activity by luciferase reporter gene assay; assay type: functional, cell-based
T1 sequence (whole entry): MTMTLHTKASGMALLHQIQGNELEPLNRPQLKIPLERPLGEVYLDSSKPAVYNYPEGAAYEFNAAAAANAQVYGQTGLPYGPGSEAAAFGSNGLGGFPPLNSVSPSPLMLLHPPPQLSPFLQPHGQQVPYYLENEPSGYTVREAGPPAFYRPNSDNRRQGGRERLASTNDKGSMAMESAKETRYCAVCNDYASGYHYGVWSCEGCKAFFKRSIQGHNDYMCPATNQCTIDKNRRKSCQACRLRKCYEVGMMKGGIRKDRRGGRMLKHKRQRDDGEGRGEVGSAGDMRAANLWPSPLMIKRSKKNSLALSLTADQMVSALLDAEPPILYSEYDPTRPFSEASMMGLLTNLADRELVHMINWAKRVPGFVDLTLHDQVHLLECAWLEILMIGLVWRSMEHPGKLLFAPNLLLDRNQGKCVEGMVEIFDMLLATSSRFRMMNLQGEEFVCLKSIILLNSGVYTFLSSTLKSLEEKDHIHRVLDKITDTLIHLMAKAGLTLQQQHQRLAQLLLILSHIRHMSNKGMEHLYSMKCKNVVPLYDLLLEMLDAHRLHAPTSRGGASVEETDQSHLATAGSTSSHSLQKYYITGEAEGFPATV

[2] = target: T2, Estrogen receptor beta (Homo sapiens, UniProt Q92731)
[3] = target: T2, Estrogen receptor beta; remark: listed apart in the source
Description: Antagonist activity at human wild type ERbeta expressed in human HeLa cells co-expressing AP-1 assessed as inhibition of transactivation activity by luciferase reporter gene assay

[4] = target: T2, Estrogen receptor beta; remark: listed apart in the source
[5] = tested on: Estrogen receptor beta (Homo sapiens), Q92731 [E305A]; experiment: Antagonist activity at human ERbeta E305A mutant expressed in human HeLa cells co-expressing AP-1 assessed as inhibition of transactivation activity at up to 10 uM by luciferase reporter gene assay; assay type: functional, cell-based
[6] = target: T3, Estrogen receptor (Homo sapiens, UniProt P03372)
T3 sequence (P03372 whole entry): T1 sequence (whole entry)

[7] = target: Estrogen receptor beta (Homo sapiens, UniProt Q92731, E305A)
[8] = target: Estrogen receptor (Homo sapiens, UniProt P03372, E353A)
Chain of Estrogen receptor (Homo sapiens, UniProt P03372, E353A) (P03372 whole entry E353A): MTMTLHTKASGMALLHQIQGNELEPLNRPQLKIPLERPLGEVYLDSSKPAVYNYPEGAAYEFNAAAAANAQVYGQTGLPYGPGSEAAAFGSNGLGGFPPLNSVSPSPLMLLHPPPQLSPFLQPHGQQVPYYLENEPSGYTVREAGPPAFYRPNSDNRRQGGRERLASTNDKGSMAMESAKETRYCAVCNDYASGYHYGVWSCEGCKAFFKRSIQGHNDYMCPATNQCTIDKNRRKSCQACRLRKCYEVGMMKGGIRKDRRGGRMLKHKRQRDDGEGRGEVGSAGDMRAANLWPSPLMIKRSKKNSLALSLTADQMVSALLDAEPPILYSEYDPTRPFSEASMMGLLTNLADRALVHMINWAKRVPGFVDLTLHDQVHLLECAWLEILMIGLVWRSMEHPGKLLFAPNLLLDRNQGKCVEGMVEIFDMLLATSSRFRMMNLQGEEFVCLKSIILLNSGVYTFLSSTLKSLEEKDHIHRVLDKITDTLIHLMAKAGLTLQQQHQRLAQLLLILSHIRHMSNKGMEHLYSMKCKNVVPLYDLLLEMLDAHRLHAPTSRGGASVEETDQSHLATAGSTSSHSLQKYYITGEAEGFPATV

T2 sequence (Q92731 whole entry): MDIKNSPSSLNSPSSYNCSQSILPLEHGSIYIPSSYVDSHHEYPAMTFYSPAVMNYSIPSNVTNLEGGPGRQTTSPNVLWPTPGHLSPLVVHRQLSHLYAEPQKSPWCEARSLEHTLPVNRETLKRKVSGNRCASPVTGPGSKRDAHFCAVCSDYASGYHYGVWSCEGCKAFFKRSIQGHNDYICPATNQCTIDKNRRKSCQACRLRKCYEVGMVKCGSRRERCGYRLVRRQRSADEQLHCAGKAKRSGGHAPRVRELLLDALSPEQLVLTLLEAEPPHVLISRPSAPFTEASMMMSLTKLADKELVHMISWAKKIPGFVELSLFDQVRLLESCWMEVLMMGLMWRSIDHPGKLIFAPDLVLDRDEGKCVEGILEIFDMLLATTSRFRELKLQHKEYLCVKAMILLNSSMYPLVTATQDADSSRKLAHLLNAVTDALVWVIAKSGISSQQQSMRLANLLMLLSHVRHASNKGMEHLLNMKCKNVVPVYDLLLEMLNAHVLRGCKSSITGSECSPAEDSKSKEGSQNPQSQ
Chain of Estrogen receptor beta (Homo sapiens), Q92731 [E305A] (Q92731 whole entry E305A): as the sequence (Q92731 whole entry) above, with E305A counted along it
Chain of Estrogen receptor beta (Homo sapiens, UniProt Q92731, E305A) (Q92731 whole entry E305A): as the sequence (Q92731 whole entry) above, with E305A counted along it

IC50 [2] [nM]	EC50 [3] [nM]	IC50 [4] [nM]	Activity [5]	IC50 [6] [nM]	IC50 [7] [nM]	IC50 [8] [nM]	Structure (SMILES)	Activity [1]
–	–	–	–	–	–	–	CCCCN(C)C(=O)CCCCCCCCCC[C@@H]1Cc2cc(O)ccc2[C@H]2CC[C@]3(C)[C@@H](O)CC[C@H]3[C@H]12	Active
> 10000	150	104	inactive	82	> 10000	212	O=C(O)/C=C/c1ccc2c(C(=O)c3ccc(OCCN4CCCCC4)cc3)c(-c3ccc(O)cc3)sc2c1	–
